Experimental data: US20060241098A1, “Pesticidal n-substituted azacyclic derivatives” (priority 2003, published 2006)
Like-named read-outs stand apart in the source and are kept apart here.

Assays:
[1] = test system: cotton aphid (Aphis gossypii); test: Translaminar insecticidal activity test on cotton leaves, N-oxides versus free amines; format: in vivo; conditions: for mortality at 500 ppm: Aphis gossypii
Method: Certain N-Substituted azacyclic compounds where the N-substituent is O^− (the N-oxides) of the present invention were tested to determine their translaminar characteristics as evidenced by activity against cotton aphid (Aphis gossypii) in comparison with their corresponding free amine derivatives. These tests were conducted in the following manner: For each compound tested, one cotton plant with two mature leaves was selected. On the top of one of the leaves a sticky material used for trapping insects was applied using a stamp of about 2.5 centimeters in diameter. The process was repeated on the bottom of the second leaf of the cotton plant. A solution of 500 ppm of test compound (dissolved in 1:1 acetone and water containing a small amount of surfactant) was then applied to the entire side of each leaf opposite the side stamped with the sticky material using a saturated cotton swab. Upon completion of the application of the test compounds, the cotton plants were maintained in a growth chamber for about 18 hours. After this time the leaves of the test plant were infested with a known number of cotton aphids by placing an infested leaf cutting from the cotton aphid colony directly over the sticky material on each leaf. The leaf cutting on the bottom of a leaf of the test plant was secured to the leaf with a pin. The treated and infested cotton plants were then maintained in a chamber, during which time they were evaluated at daily intervals of from one to up to eight days. A test compound was termed active (A) if the top and bottom of the leaves of the test plant were mostly free of aphids (80% to 100%) when compared to untreated controls. […]

cotton aphid = test: Residual insecticidal activity test on sprayed cotton plants; format: in vivo, Aphis gossypii; conditions: 72 h exposure; for Percent Mortality 5 DAT (greenhouse): 5 day residual; for mortality at 224 g/ha / mortality at 560 g/ha / mortality at 1120 g/ha: Aphis gossypii
Method: Certain N-Substituted azacyclic compounds where the N-substituent is O^− (the N-oxides) of the present invention were also tested to determine their residual insecticidal activity. These tests were conducted in the following manner:
For each rate of application of test compound, a 15 mL aliquot of test solution was prepared. Sufficient test compound was dissolved in 1.5 mL of acetone to provide an application rate as high as 1200 grams/Ha. Each solution was then added to 13.5 mL of water containing 300 ppm of a surfactant. There were four replicates for each rate of application of test compound, and all tests included a known chemical standard as well as a standard of water and untreated checks.
A maximum of 14 appropriately sized cotton plants for each rate of application and replicate were arranged in a 28 pot plastic flat and sprayed with the 15 mL sample of test compound using an traveling boom sprayer equipped with a cone spray tip at a rate of 30 gallons/acre under a pressure of 40-44 psi. The untreated checks were sprayed first, followed by the test compounds and standards, all in order of lowest to highest rates of application. Once the spraying was complete, the test plants were allowed to air-dry on the conveyor on which they were sprayed.
In the test to determine residual activity (0 Day Residual) one set of dry plants was infested with leaf cuttings covered with about 25 cotton aphids taken from cotton plants in an aphid colony. The cotton plants were then maintained in a greenhouse or in an atmosphere of simulated direct sunlight for 72 hours after which time cotton aphid mortality was determined.
A second set of dry test plants treated with test compounds were maintained for three days (3 Day Residual), then infested with cotton aphid. The infested plants were maintained and evaluated for cotton aphid mortality after 72 hours as set forth above. Other residual activity periods are optionally evaluated also, for example a 5 day residual.
At the end of the 72 hour exposure period the numbers of live insects were counted a percent mortality of aphids was calculated based on the number of live insects present and the number that were infested onto the plants.

[2] = 24 h, read-out: Percent Mortality at Day After treatment (DAT), 1 DAT
[3] = 72 h, read-out: Percent Mortality at Day After treatment (DAT), 3 DAT
[4] = 96 h, read-out: Percent Mortality at Day After treatment (DAT), 4 DAT
[5] = 120 h, read-out: Percent Mortality at Day After treatment (DAT), 5 DAT
[6] = 144 h, read-out: Percent Mortality at Day After treatment (DAT), 6 DAT
[7] = 500 ppm applied to opposite leaf side, 2 DAT
[8] = 500 ppm applied to opposite leaf side, 3 DAT
[9] = 500 ppm applied to opposite leaf side
[10] = 500 ppm applied to opposite leaf side, 6 DAT
[11] = Table 4, 56 g/ha, 3 day residual, simulated sunlight environment
[12] = Table 4, 56 g/ha, greenhouse environment
[13] = Table 4, 56 g/ha, infested 0 days after treatment
[14] = Table 4, 112 g/ha, 3 day residual, simulated sunlight environment
[15] = Table 4, 112 g/ha, greenhouse environment
[16] = Table 4, 112 g/ha, infested 0 days after treatment
[17] = Table 4, 224 g/ha, 3 day residual, simulated sunlight environment
[18] = Table 4, 224 g/ha, greenhouse environment
[19] = Table 4, 224 g/ha, infested 0 days after treatment
[20] = 500 ppm applied to opposite leaf side, 1 DAT
[21] = 168 h, read-out: Percent Mortality at Day After treatment (DAT), 7 DAT

SMILES: CN1CCC=C(c2cnsn2)C1 [A, 3-[1-methyl(1,2,5,6-tetrahydropyrid-3-yl)]-1,2,5-thiadiazole]
- mortality at 500 ppm ([1]; 24 h, 500 ppm applied to opposite leaf side, 1 DAT, read-out: Percent Mortality at Day After treatment (DAT), 1 DAT): < 50%
- mortality at 500 ppm ([1]; 48 h, 500 ppm applied to opposite leaf side, 2 DAT, read-out: Percent Mortality at Day After treatment (DAT), 2 DAT): < 50%
- mortality at 500 ppm ([1]; 72 h, 500 ppm applied to opposite leaf side, 3 DAT, read-out: Percent Mortality at Day After treatment (DAT), 3 DAT): < 50%
- mortality at 500 ppm ([1]; 96 h, 500 ppm applied to opposite leaf side, 4 DAT, read-out: Percent Mortality at Day After treatment (DAT), 4 DAT): < 50%
- mortality at 500 ppm ([1]; 144 h, 500 ppm applied to opposite leaf side, 6 DAT, read-out: Percent Mortality at Day After treatment (DAT), 6 DAT): < 50%

SMILES: CCc1noc(C2CN3CCC2C3)n1 (stereo not shown) [C, 5-(4-azabicyclo[2.2.1]hept-2-yl)-3-ethyl-1,2,4-oxadiazole]
- mortality at 500 ppm [1, 2]: < 50%
- mortality at 500 ppm [1, 3]: < 50%
- mortality at 500 ppm [1, 4]: < 50%
- mortality at 500 ppm [1, 5]: < 50%
- mortality at 500 ppm [1, 6]: < 50%

SMILES: Cc1noc(C2C[N+]3([O-])CCC2C3)n1 (stereo not shown) [Compound 396, N-Oxide of 5-(4-azabicyclo[2.2.1]hept-2-yl)-3-methyl-1,2,4-oxadiazole]
- Percent Mortality at Day After treatment (DAT), 2 DAT [1, 7]: A (A is 80%-100% mortality when compared to the control)
- Percent Mortality at Day After treatment (DAT), 3 DAT [1, 8]: A (A is 80%-100% mortality when compared to the control)
- Percent Mortality at Day After treatment (DAT), 5 DAT [1, 9]: A (A is 80%-100% mortality when compared to the control)
- Percent Mortality at Day After treatment (DAT), 6 DAT [1, 10]: A (A is 80%-100% mortality when compared to the control)
- mortality throughout the seven-day test period ([1]; 500 ppm, whole 7-day period): 100%
- Percent Mortality 3 DAT (greenhouse) (cotton aphid; Table 3, 224 g/ha, 3 day residual, greenhouse environment): 98%
- Percent Mortality 3 DAT (simulated sunlight) (cotton aphid; Table 3, 224 g/ha, 3 day residual, simulated sunlight environment): 99%
- Percent Mortality 0 DAT (cotton aphid; Table 3, 224 g/ha, infested 0 days after treatment): 100%
- Percent Mortality 3 DAT (greenhouse) (cotton aphid; Table 3, 560 g/ha, 3 day residual, greenhouse environment): 100%
- Percent Mortality 3 DAT (simulated sunlight) (cotton aphid; Table 3, 560 g/ha, 3 day residual, simulated sunlight environment): 100%
- Percent Mortality 0 DAT (cotton aphid; Table 3, 560 g/ha, infested 0 days after treatment): 100%
- Percent Mortality 3 DAT (greenhouse) (cotton aphid; Table 3, 1120 g/ha, 3 day residual, greenhouse environment): 100%
- Percent Mortality 3 DAT (simulated sunlight) (cotton aphid; Table 3, 1120 g/ha, 3 day residual, simulated sunlight environment): 100%
- Percent Mortality 0 DAT (cotton aphid; Table 3, 1120 g/ha, infested 0 days after treatment): 100%
- Percent Mortality 3 DAT (simulated sunlight) (cotton aphid; [11]): 58%
- Percent Mortality 5 DAT (greenhouse) (cotton aphid; [12]): 64%
- Percent Mortality 0 DAT (cotton aphid; [13]): 100%
- Percent Mortality 3 DAT (simulated sunlight) (cotton aphid; [14]): 70%
- Percent Mortality 5 DAT (greenhouse) (cotton aphid; [15]): 86%
- Percent Mortality 0 DAT (cotton aphid; [16]): 100%
- Percent Mortality 3 DAT (simulated sunlight) (cotton aphid; [17]): 98%
- Percent Mortality 5 DAT (greenhouse) (cotton aphid; [18]): 93%
- Percent Mortality 0 DAT (cotton aphid; [19]): 100%

SMILES: CCc1noc(C2C[N+]3([O-])CCC2C3)n1 (stereo not shown) [Compound 397, N-Oxide of 5-(4-azabicyclo[2.2.1]hept-2-yl)-3-ethyl-1,2,4-oxadiazole]
- Percent Mortality at Day After treatment (DAT), 1 DAT [1, 20]: SA (SA is 50%-80% mortality when compared to the control)
- Percent Mortality at Day After treatment (DAT), 3 DAT [1, 8]: SA (SA is 50%-80% mortality when compared to the control)
- Percent Mortality at Day After treatment (DAT), 4 DAT ([1]; 500 ppm applied to opposite leaf side, 4 DAT): SA (SA is 50%-80% mortality when compared to the control)
- Percent Mortality at Day After treatment (DAT), 5 DAT [1, 9]: SA (SA is 50%-80% mortality when compared to the control)
- Percent Mortality at Day After treatment (DAT), 6 DAT [1, 10]: SA (SA is 50%-80% mortality when compared to the control)

SMILES: Cc1nnn(C2C[N+]3([O-])CCC2C3)n1 (stereo not shown) [Compound 402, N-Oxide of 2-(4-azabicyclo[2.2.1]heptyl-2-yl)-5-methyl-1,2,3,4-tetrazole]
- Percent Mortality at Day After treatment (DAT), 1 DAT [1, 20]: A (A is 80%-100% mortality when compared to the control)
- Percent Mortality at Day After treatment (DAT), 2 DAT [1, 7]: A (A is 80%-100% mortality when compared to the control)
- Percent Mortality at Day After treatment (DAT), 3 DAT [1, 8]: A (A is 80%-100% mortality when compared to the control)
- Percent Mortality at Day After treatment (DAT), 6 DAT [1, 10]: A (A is 80%-100% mortality when compared to the control)
- Percent Mortality at Day After treatment (DAT), 7 DAT ([1]; 500 ppm applied to opposite leaf side, 7 DAT): A (A is 80%-100% mortality when compared to the control)
- Percent Mortality 3 DAT (simulated sunlight) (cotton aphid; [11]): 50%
- Percent Mortality 5 DAT (greenhouse) (cotton aphid; [12]): 45%
- Percent Mortality 0 DAT (cotton aphid; [13]): 50%
- Percent Mortality 3 DAT (simulated sunlight) (cotton aphid; [14]): 84%
- Percent Mortality 5 DAT (greenhouse) (cotton aphid; [15]): 70%
- Percent Mortality 0 DAT (cotton aphid; [16]): 84%
- Percent Mortality 3 DAT (simulated sunlight) (cotton aphid; [17]): 92%
- Percent Mortality 5 DAT (greenhouse) (cotton aphid; [18]): 84%
- Percent Mortality 0 DAT (cotton aphid; [19]): 92%

SMILES: Cc1nnn(C2C[N+]3([O-])CCC2CC3)n1 (stereo not shown) [Compound 407, N-Oxide of 5-methyl-2-quinuclidin-3-yl-1,2,3,4-tetraazole]
- mortality at 500 ppm [1, 2]: < 50%
- mortality at 500 ppm [1, 3]: 50 to 80%
- mortality at 500 ppm [1, 4]: 50 to 80%
- mortality at 500 ppm [1, 5]: 50 to 80%
- mortality at 500 ppm [1, 6]: 50 to 80%

SMILES: Cc1noc(C2CN3CCC2C3)n1 (stereo not shown) [Compound B, 5-(4-azabicyclo[2.2.1]hept-2-yl)-3-methyl-1,2,4-oxadiazole, reference compound]
- mortality at 500 ppm [1, 2]: < 50%
- mortality at 500 ppm ([1]; 48 h, read-out: Percent Mortality at Day After treatment (DAT), 2 DAT): < 50%
- mortality at 500 ppm [1, 3]: < 50%
- mortality at 500 ppm [1, 6]: < 50%
- mortality at 500 ppm [1, 21]: < 50%
- mortality at 500 ppm ([1]; 168 h, read-out: mortality throughout the seven-day test period): < 50%
- mortality at 224 g/ha (cotton aphid; Table 3, 224 g/ha, 3 day residual, greenhouse environment, read-out: Percent Mortality 3 DAT (greenhouse)): 41%
- mortality at 224 g/ha (cotton aphid; Table 3, 224 g/ha, 3 day residual, simulated sunlight environment, read-out: Percent Mortality 3 DAT (simulated sunlight)): 21%
- mortality at 224 g/ha (cotton aphid; Table 3, 224 g/ha, infested 0 days after treatment, read-out: Percent Mortality 0 DAT): 100%
- mortality at 560 g/ha (cotton aphid; Table 3, 560 g/ha, 3 day residual, greenhouse environment, read-out: Percent Mortality 3 DAT (greenhouse)): 84%
- mortality at 560 g/ha (cotton aphid; Table 3, 560 g/ha, 3 day residual, simulated sunlight environment, read-out: Percent Mortality 3 DAT (simulated sunlight)): 49%
- mortality at 560 g/ha (cotton aphid; Table 3, 560 g/ha, infested 0 days after treatment, read-out: Percent Mortality 0 DAT): 100%
- mortality at 1120 g/ha (cotton aphid; Table 3, 1120 g/ha, 3 day residual, greenhouse environment, read-out: Percent Mortality 3 DAT (greenhouse)): 99%
- mortality at 1120 g/ha (cotton aphid; Table 3, 1120 g/ha, 3 day residual, simulated sunlight environment, read-out: Percent Mortality 3 DAT (simulated sunlight)): 95%
- mortality at 1120 g/ha (cotton aphid; Table 3, 1120 g/ha, infested 0 days after treatment, read-out: Percent Mortality 0 DAT): 100%

SMILES: Cc1nnn([C@H]2CN3CC[C@H]2C3)n1 [D, 2-(4-azabicyclo[2.2.1]heptyl-2-yl)-5-methyl-1,2,3,4-tetrazole]
- mortality at 500 ppm [1, 6]: 50 to 80%
- mortality at 500 ppm [1, 21]: 50 to 80%

SMILES: Cc1nnn(C2CN3CCC2CC3)n1 (stereo not shown) [E, 5-methyl-2-quinuclidin-3-yl-1,2,3,4-tetraazole]
- mortality at 500 ppm [1, 2]: < 50%
- mortality at 500 ppm [1, 3]: < 50%
- mortality at 500 ppm [1, 4]: < 50%
- mortality at 500 ppm [1, 5]: < 50%
- mortality at 500 ppm [1, 6]: < 50%
